Columns and labels:
CD4 T cells = test: Ex vivo culture of splenocytes from HIV-1 persistently infected humanized mice; type: cell-based; details: for number of live CD4 T cells (CD4 T cell depletion) / active caspase-3 / apoptosis of CD4 T cells: 10 days culture, Z-DEVD-FMK 10 μM; for number of live CD4 T cells (CD4 T cell depletion): Ac-YVAD-CMK 50 μM
Method: Mice were sacrificed at 10 wpi. […] At day 10, the cells were counted and used for analysis. (B) HIV-1 RNA levels in culture supernatant. (C-D) Representative dot plots (C) and summarized data (D) show percentages of CD4 T cells with active caspase-3. (E) Number of live CD4 T cells in each group. (F-I) Splenocytes from mock (n=2) or HIV-1 infected (n=4) humanized mice were cultured with IL-2 in vitro in the presence of DMSO or caspase-3 inhibitor Z-DEVD-FMK or caspase-1 inhibitor Ac-YVAD-CMK for 10 days. At day 10, the cells were counted and used for staining. (F-G) Representative dot plots (F) and summarized data (G) show percentages of active caspase-3^+ CD4 T cells. (H-I) Number of live CD4 T cells in each group. Data are one representative of 2 independent experiments with mean values±s.e.m.). *P<0.05, **P<0.01 by unpaired, two-tailed Student's t-test to compare differences between each two groups.
For surface staining, single cell suspensions prepared from peripheral blood, spleen, or mesenteric lymph nodes of humanized mice were stained with surface markers and analyzed on a CyAn ADP flow cytometer (Dako). For intracellular staining, cells were first stained with surface markers, and then fixed and permeabilized with cytofix/cytoperm buffer (BD Bioscience), followed by intracellular staining. PE-conjugated anti-human active caspase-3 (C92-605) was used to detect intracellular activation of caspase-3. Fluorescent labeled inhibitors of caspases-1 probe assay (FLICA 660 Caspase-1 Assay Kit, ImmunoChemistry Technologies) were performed to determine intracellular activation of caspases-1. Data were analyzed using Summit4.3 software (Dako).
Media were half-changed every 2-3 days. At day 10, the cells were counted and used for staining.

HIV-1 = details: long-term IFN-α during and after ART; cited from earlier work
[1] = α-IFNAR1 10 μg/ml, IFN-α 200 u/ml

| Compound | number of live CD4 T cells (CD4 T cell depletion) (CD4 T cells) | active caspase-3 / apoptosis of CD4 T cells (CD4 T cells; [1]) | HIV-1 replication (HIV-1 RNA in culture supernatant) (CD4 T cells; 10 days culture with IL-2, α-IFNAR1 10 μg/ml, IFN-α 200 u/ml) | patients with suppression of HIV-1 rebound (HIV-1) [%] |
| --- | --- | --- | --- | --- |
| CC(=O)N[C@@H](Cc1ccc(O)cc1)C(=O)N[C@H](C(=O)N[C@@H](C)C(=O)N[C@@H](CC(=O)O)C(=O)CCl)C(C)C [Ac-YVAD-CMK, reference compound] | did not prevent CD4 T cell depletion | – | – | – |
| COC(=O)CC[C@H](NC(=O)[C@H](CC(=O)OC)NC(=O)OCc1ccccc1)C(=O)N[C@H](C(=O)N[C@@H](CC(=O)OC)C(=O)CF)C(C)C [Z-DEVD-FMK, reference compound] | rescued CD4 T cell number | reduced HIV-1 induced CD4 T cell apoptosis | – | – |
| IFN-α | accelerated CD4 T cell depletion | further increased the level of active caspase-3 | inhibited HIV-1 replication | ~40 |

From patent publication US20190284286A1, “Modulation of Type I Interferons to Reactivate HIV-1 Reservoir and Enhance HIV-1 Treatment” (The University of North Carolina at Chapel Hill, priority 2016, published 2019)
